From US20120077828A1, “CHEMICAL COMPOUNDS” (priority 2010, published 2012) come the findings set out here.

Some results are limits rather than exact numbers.

In the assay the target is T1, PERK (Homo sapiens, UniProt Q9NZJ5).
T1 construct: GST-PERK (536-1116) cytoplasmic domain was purchased from Invitrogen; purchased Invitrogen PV5106
T1 sequence (Q9NZJ5 536-1116): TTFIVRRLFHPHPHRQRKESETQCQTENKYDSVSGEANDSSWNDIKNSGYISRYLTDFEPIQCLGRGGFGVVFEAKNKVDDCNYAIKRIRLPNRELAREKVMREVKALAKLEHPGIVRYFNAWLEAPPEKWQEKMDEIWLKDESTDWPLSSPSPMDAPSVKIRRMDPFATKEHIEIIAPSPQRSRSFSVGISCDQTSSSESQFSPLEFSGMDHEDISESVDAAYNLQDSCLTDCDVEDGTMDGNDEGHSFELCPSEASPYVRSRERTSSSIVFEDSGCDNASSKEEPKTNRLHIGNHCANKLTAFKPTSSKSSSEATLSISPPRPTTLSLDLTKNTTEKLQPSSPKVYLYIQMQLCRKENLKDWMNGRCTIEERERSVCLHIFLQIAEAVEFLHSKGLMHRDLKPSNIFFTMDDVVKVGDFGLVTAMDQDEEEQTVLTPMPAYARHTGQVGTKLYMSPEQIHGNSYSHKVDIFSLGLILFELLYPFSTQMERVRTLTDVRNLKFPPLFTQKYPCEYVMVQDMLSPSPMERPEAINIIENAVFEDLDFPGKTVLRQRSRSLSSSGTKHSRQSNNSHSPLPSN
The assay is described as follows: PKR-like Endoplasmic Reticulum Kinase (PERK) Assay (HTRF Format). The following applies: average, in at least one set of experimental runs; read-out: average pIC50 value against PERK (converted). It counts as biochemical. The protocol: PKR-like Endoplasmic Reticulum Kinase (PERK) Assay (HTRF Format)
Source of substrate: elF2α: 6-His-Full-length human elF2α is purified from baculovirus expression in Sf9 insect cells. The elF2 protein is buffer exchanged by dialysis into PBS, chemically modified by NHS-LC-Biotin and then buffer exchanged by dialysis into 50 mm TRIS pH 7.2/250 mM NaCl/5 mM DTT. Protein is aliquoted and stored at −80° C.
Assays were performed by adding GST-PERK solution to assay plates containing compounds and pre-incubated for 30 minutes at room temperature. The reaction is initiated by the addition of ATP and EIF2α substrate solution. Quench solution is added following a one hour incubation at room temperature. The plates are covered for 2 hours at room temperature prior to determination of signal. The resulting signal is quantified on a Viewlux Reader (PerkinElmer). The APC Signal is normalized to the Europium signal by transforming the data through an APC/Eu calculation.
Compounds under analysis were dissolved in DMSO to 1.0 mM and serially diluted 1 to 3 with DMSO through eleven dilutions. 0.1 μl of each concentration was transferred to the corresponding well of an assay plate. This creates a final compound concentration range from 0.00017 to 10 μM.
The data for concentration response curves were plotted as % Inhibition calculated with the data reduction formula 100*(1−(U1−C2)/(C1−C2)) versus concentration of compound where U is the unknown value, C1 is the average control value obtained for 1% DMSO, and C2 is the average control value obtained for 0.1 M EDTA. Data were fitted with a curve described by:
where A is the minimum y, B is the maximum y concentration [M], D is the slope factor, and x is the log10 of the compound.
In the above data, pIC50 is defined as −log(IC50) where the IC50 value is expressed in molar units.
A general note: TR-FRET usually uses a lanthanide donor and a delayed reading to cut background.
On to `Cc1cccc(CC(=O)N2CCc3cc(-c4nn(C)c5ncnc(N)c45)ccc32)c1F` [Example 74, 3-{1-[(2-fluoro-3-methylphenyl)acetyl]-2,3-dihydro-1H-indol-5-yl}-1-methyl-1H-pyrazolo[3,4-d]pyrimidin-4-amine], for which the IC50 is no more than 1 nM.

Take `Cn1cc(-c2ccc3c(c2)CCN3C(=O)Cc2ccccc2F)c2c(N)ncnc21` [Example 34, 5-{1-[(2-fluorophenyl)acetyl]-2,3-dihydro-1H-indol-5-yl}-7-methyl-7H-pyrrolo[2,3-d]pyrimidin-4-amine]: the IC50 is no more than 0.316 nM.

Consider `Cc1cc(C)n(CC(=O)N2CCc3cc(-c4cn(C)c5ncnc(N)c45)ccc32)n1` [Example 111, 5-{1-[(3,5-dimethyl-1H-pyrazol-1-yl)acetyl]-2,3-dihydro-1H-indol-5-yl}-7-methyl-7H-pyrrolo[2,3-d]pyrimidin-4-amine], for which the IC50 is no more than 1 nM.

As to `Nc1nccc2scc(-c3ccc4c(c3)CCN4C(=O)Cc3cccc(Cl)c3)c12` [Example 22, 3-{1-[(3-chlorophenyl)acetyl]-2,3-dihydro-1H-indol-5-yl}thieno[3,2-c]pyridin-4-amine], the IC50 is no more than 2.51 nM.

Take `Cn1cc(-c2ccc3c(c2)CCN3C(=O)Cc2cc(F)ccc2F)c2c(N)ncnc21` [Example 59, 5-{1-[(2,5-difluorophenyl)acetyl]-2,3-dihydro-1H-indol-5-yl}-7-methyl-7H-pyrrolo[2,3-d]pyrimidin-4-amine]: the IC50 is no more than 1 nM.

`Cc1cc(C)n(CC(=O)N2CCc3c2ccc(-c2cn(C)c4ncnc(N)c24)c3F)n1` [Example 138, 5-{1-[(3,5-dimethyl-1H-pyrazol-1-yl)acetyl]-4-fluoro-2,3-dihydro-1H-indol-5-yl}-7-methyl-7H-pyrrolo[2,3-d]pyrimidin-4-amine]: the IC50 is no more than 2.51 nM.

For the molecule `Cc1cccc(CC(=O)N2CCc3cc(-c4cncc5[nH]nc(N)c45)ccc32)c1` [Example 130, 4-{1-[(3-methylphenyl)acetyl]-2,3-dihydro-1H-indol-5-yl}-1H-pyrazolo[3,4-c]pyridin-3-amine], the IC50 is no more than 0.316 nM.

`Cn1cc(-c2ccc3c(c2)CCN3C(=O)Cc2ccc(F)cc2)c2c(N)ncnc21` [Example 93, 5-{1-[(4-fluorophenyl)acetyl]-2,3-dihydro-1H-indol-5-yl}-7-methyl-7H-pyrrolo[2,3-d]pyrimidin-4-amine]: the IC50 is no more than 2.51 nM.

Take `Nc1ncnc2c1c(-c1ccc3c(c1)CCN3C(=O)Cc1cccc(C(F)(F)F)c1)cn2CCN1CCOCC1` [Example 127, 7-[2-(4-morpholinyl)ethyl]-5-(1-{[3-(trifluoromethyl)phenyl]acetyl}-2,3-dihydro-1H-indol-5-yl)-7H-pyrrolo[2,3-d]pyrimidin-4-amine]: the IC50 is no more than 0.316 nM.

As to `Nc1ncnc2scc(-c3ccc4c(c3)CCN4C(=O)Cc3cc(F)ccc3F)c12` [Example 31, 5-{1-[(2,5-difluorophenyl)acetyl]-2,3-dihydro-1H-indol-5-yl}thieno[2,3-d]pyrimidin-4-amine], the IC50 was no more than 1 nM.

In the case of `Nc1ncc(C2=CCNCC2)c2scc(-c3ccc4c(c3)CCN4C(=O)Cc3ccccc3)c12` [Example 19, 3-[1-(phenylacetyl)-2,3-dihydro-1H-indol-5-yl]-7-(1,2,3,6-tetrahydro-4-pyridinyl)thieno[3,2-c]pyridin-4-amine], the IC50 is no more than 2.51 nM.

`Cn1nc(-c2ccc3c(c2)CCN3C(=O)Cc2cccc(Cl)c2)c2c(N)ncnc21` [Example 42, 3-{1-[(3-chlorophenyl)acetyl]-2,3-dihydro-1H-indol-5-yl}-1-methyl-1H-pyrazolo[3,4-d]pyrimidin-4-amine]: the IC50 was no more than 2.51 nM.

Turning to `CN1CC(n2cc(-c3ccc4c(c3)CCN4C(=O)Cc3cccc(C(F)(F)F)c3)c3c(N)ncnc32)C1` [Example 133, 7-(1-methyl-3-azetidinyl)-5-(1-{[3-(trifluoromethyl)phenyl]acetyl}-2,3-dihydro-1H-indol-5-yl)-7H-pyrrolo[2,3-d]pyrimidin-4-amine], the IC50 is no more than 1 nM.

With `Cn1nc(-c2ccc3c(c2)CCN3C(=O)Cc2cc(F)cc(F)c2F)c2c(N)ncnc21` [Example 55, 1-methyl-3-{1-[(2,3,5-trifluorophenyl)acetyl]-2,3-dihydro-1H-indol-5-yl}-1H-pyrazolo[3,4-d]pyrimidin-4-amine], the IC50 was no more than 2.51 nM.

With `Cn1cc(-c2ccc3c(c2F)CCN3C(=O)Cc2cc(F)ccc2F)c2c(N)ncnc21` [Example 114, 5-{1-[(2,5-difluorophenyl)acetyl]-4-fluoro-2,3-dihydro-1H-indol-5-yl}-7-methyl-7H-pyrrolo[2,3-d]pyrimidin-4-amine], the IC50 is no more than 0.316 nM.
